From BindingDB's records for doi:10.1021/bi1011157 (Albert Einstein College of Medicine, 2010)

These compounds were tested against T1, Pyrazinamidase/nicotinamidase PncA (Mycobacterium tuberculosis, UniProt Q50575) (assay: Enzyme Assay).
T1 sequence (Q50575 whole entry): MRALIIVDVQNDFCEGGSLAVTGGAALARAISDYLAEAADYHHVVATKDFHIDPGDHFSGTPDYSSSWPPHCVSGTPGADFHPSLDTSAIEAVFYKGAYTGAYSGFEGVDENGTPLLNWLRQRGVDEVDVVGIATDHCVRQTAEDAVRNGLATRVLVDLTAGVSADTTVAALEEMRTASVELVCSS
Experimental: Enzyme activity measurement by a coupled assay. initial velocities for the reaction of MtPncA were determined by monitoring the loss of absorbance at 340 nm associated with oxidation of NADH to NAD by L-glutamic dehydrogenase (GDH) to produce glutamate from alpha-ketoglutarate.
O=Cc1cnccn1 [PncA Inhibitor, 1] showed a Ki of 1.5 µM. For O=Cc1cccnc1 [PncA Inhibitor, 2], the Ki was 0.3 µM. For O=C(c1cccnc1)C(F)(F)F [PncA Inhibitor, 3], the Ki was 420 µM. With OCc1cccnc1 [PncA Inhibitor, 4] the Ki was 63 µM. N#Cc1cccnc1 [PncA Inhibitor, 5] gave a Ki of 140 µM. Work on N#Cc1cnccn1 [PncA Inhibitor, 6] yielded a Ki of 61 µM.
